The nature of data set [1]: Hygroscopicity measurement (weight gain). Type of data set: physicochemical. Particulars: 25±1° C., relative humidity 80±2%, 24 hours. How it is done:
The method for measuring the hygroscopicity may include: placing a certain amount of a sample to be tested into a precisely weighed glass weighing bottle (m1) with a plug and precisely weighing (m2); placing the opened weighing bottle into a thermostatic dryer (with saturated ammonium sulfate solution placed at the bottom, with a relative humidity of 80±2%) at 25±1° C. for 24 hours; covering the weighing bottle with the plug and precisely weighing (m3), and calculating the percent of weight gain of the sample to be tested according to the following equation: […]
The measurement method includes: placing a certain amount of sample to be tested into a precisely weighed glass weighing bottle (m1) with a plug and precisely weighing (m2); placing the opened weighing bottle in a thermostated dryer (with saturated ammonium sulfate solution placed at the bottom, with a relative humidity of 80±2%) at 25±1° C. for 24 hours; covering the weighing bottle with the plug and precisely weighing (m3).
Characterization of the hygroscopicity and definition of the hygroscopic weight gain:
Deliquescence: sufficient moisture was absorbed to form liquid;
Slight hygroscopicity: hygroscopic weight gain was less than 2% and not less than 0.2%: […]

Data set [2] is described as follows: Solubility in water by HPLC. In kind it is physicochemical. Particulars: purified water, 25° C.; for solubility at 30 min: thermodynamic from solid. How it is done:
Liquid chromatograph: Agilent 1200 HPLC system (diode array detector), ChemStation
Mobile phase: acetonitrile/water
Detection wavelength: 264 nm
About 100 mg sample to be tested was precisely weighed and placed into a 100 ml graduated flask at 25° C.; an appropriate amount of solvent [acetonitrile/water (80:20)] was added to dissolve the sample under ultrasonic sound, and the solution was diluted to a given scale and shaken up; 10 μl resulting solution was precisely measured and loaded into the liquid chromatograph, the chromatogram was recorded, and the peak area Scontrol was measured.
10 ml purified water was measured and placed into a 25 ml Kjeldahl flask. The sample to be tested was gradually added at 25° C. until an insoluble solid appeared in the solution. The solution was treated under ultrasonic sound for 30 min and the insoluble solid was filtered off. 10 μl filtrate was precisely weighed and loaded into the liquid chromatograph, the chromatogram was recorded, and the peak area Stest was measured.

The nature of data set [3]: Plasma exposure (AUC) in rats after gavage administration. Particulars: rat, po, male SD rats, 10 mg/kg (based on pharmaceutically active compound), salts dissolved in pure water, active compound as suspension in 0.5% CMC, up to 24 h. Type of data set: in vivo. As to the method:
Laboratory animal: male SD rats
Dosage: 10 mg/kg (based on pharmaceutically active compound)
Formulation for salts: dissolving in pure water
Formulation for pharmaceutically active compound: suspension in CMC (carboxymethylcellulose), 0.5%
Animal Grouping and Testing Course:
Each group includes three male rats having a weight of 180 to 210 g. Gavage administration was performed; the blood was collected at point of time: 5 min, 15 min, 30 min, 45 min, 1 h, 2 h, 4 h, 6 h, 10 h and 24 h; about 250 μl blood was collected from orbital venous plexus into a heparin-containing tube, centrifuged, and 100 μl plasma was used for LC-MS analysis.

One may read the solubility as the dissolved amount per volume that the medium holds. The low end stands for a poorly soluble substance, the high end for a readily soluble substance. As for `CC(=O)O.CCN(CC)CCNC(=O)c1c(C)[nH]c2c1CCC/C2=C1/C(=O)Nc2ccc(F)cc21` [Acetate, (Z)—N-[2-(diethylamino)ethyl]-2-methyl-7-(1,2-dihydro-5-fluoro-2-oxo-3H-indol-3-ylidene)-4,5,6,7-tetrahydro-1H-indol-3-carboxamide acetate], the Hygroscopicity result in data set [1] is on record as “Strong hygroscopicity (hygroscopic weight gain was not less than 15%)”. This compound came in with a solubility at 30 min in data set [2] of 30.7 mg/mL.

Turning to `CCN(CC)CCNC(=O)c1c(C)[nH]c2c1CCC/C2=C1/C(=O)Nc2ccc(F)cc21.O=S(=O)(O)c1ccccc1` [Benzenesulfonate, (Z)—N-[2-(diethylamino)ethyl]-2-methyl-7-(1,2-dihydro-5-fluoro-2-oxo-3H-indol-3-ylidene)-4,5,6,7-tetrahydro-1H-indol-3-carboxamide benzenesulfonate], the Hygroscopicity result in data set [1] was “Hygroscopicity (hygroscopic weight gain was less than 15% and not less than 2%)”. In data set [2], this compound returned a solubility at 30 min of 19.2 mg/mL.

One may read the AUC(0-t) as exposure summed from dosing to a finite time, without extrapolation to infinity. As to `CCN(CC)CCNC(=O)c1c(C)[nH]c2c1CCC/C2=C1/C(=O)Nc2ccc(F)cc21.O=C(O)CC(O)(CC(=O)O)C(=O)O` [Citrate, (Z)—N-[2-(diethylamino)ethyl]-2-methyl-7-(1,2-dihydro-5-fluoro-2-oxo-3H-indol-3-ylidene)-4,5,6,7-tetrahydro-1H-indol-3-carboxamide citrate], the Hygroscopicity result in data set [1] is “Slight hygroscopicity (hygroscopic weight gain was less than 2% and not less than 0.2%)”. In data set [2], this compound displayed a solubility at 30 min of 38.2 mg/mL. For the same compound, the AUC(0-t) in data set [3] came out at 838 ng·h/mL.

For `CCN(CC)CCNC(=O)c1c(C)[nH]c2c1CCC/C2=C1/C(=O)Nc2ccc(F)cc21.O=C(O)/C=C/C(=O)O` [Fumarate, (Z)—N-[2-(diethylamino)ethyl]-2-methyl-7-(1,2-dihydro-5-fluoro-2-oxo-3H-indol-3-ylidene)-4,5,6,7-tetrahydro-1H-indol-3-carboxamide fumarate], the Hygroscopicity result in data set [1] was “Slight hygroscopicity (hygroscopic weight gain was less than 2% and not less than 0.2%)”. The same compound returned a solubility at 30 min in data set [2] of 0.0168 mg/mL.

In the case of `Br.CCN(CC)CCNC(=O)c1c(C)[nH]c2c1CCC/C2=C1/C(=O)Nc2ccc(F)cc21` [Hydrobromate, (Z)—N-[2-(diethylamino)ethyl]-2-methyl-7-(1,2-dihydro-5-fluoro-2-oxo-3H-indol-3-ylidene)-4,5,6,7-tetrahydro-1H-indol-3-carboxamide hydrobromate], the Hygroscopicity result in data set [1] is recorded as “Almost no hygroscopicity”. The “Solubility in Water” value in data set [2] worked out at 3.5922 mg/mL.

In the case of `CCN(CC)CCNC(=O)c1c(C)[nH]c2c1CCC/C2=C1/C(=O)Nc2ccc(F)cc21.Cl` [Hydrochloride, (Z)—N-[2-(diethylamino)ethyl]-2-methyl-7-(1,2-dihydro-5-fluoro-2-oxo-3H-indol-3-ylidene)-4,5,6,7-tetrahydro-1H-indol-3-carboxamide hydrochloride], in data set [1], the Hygroscopicity result is on record as “Almost no hygroscopicity”. The solubility at 30 min in data set [2] came out at 22.8 mg/mL. For the same compound, the AUC(0-t) in data set [3] worked out at 185 ng·h/mL.

`CCN(CC)CCNC(=O)c1c(C)[nH]c2c1CCC/C2=C1/C(=O)Nc2ccc(F)cc21.O=C(O)C(O)C(O)C(=O)O` [L-tartrate, (Z)—N-[2-(diethylamino)ethyl]-2-methyl-7-(1,2-dihydro-5-fluoro-2-oxo-3H-indol-3-ylidene)-4,5,6,7-tetrahydro-1H-indol-3-carboxamide L-tartrate]: the Hygroscopicity entry in data set [1] is “Slight hygroscopicity (hygroscopic weight gain was less than 2% and not less than 0.2%)”. Further, in data set [2], the concentration in solution (solubility at 30 min) came to 10.6 mg/mL.

As for `CC(O)C(=O)O.CCN(CC)CCNC(=O)c1c(C)[nH]c2c1CCC/C2=C1/C(=O)Nc2ccc(F)cc21` [Lactate, (Z)—N-[2-(diethylamino)ethyl]-2-methyl-7-(1,2-dihydro-5-fluoro-2-oxo-3H-indol-3-ylidene)-4,5,6,7-tetrahydro-1H-indol-3-carboxamide lactate], in data set [1], the Hygroscopicity result was “Hygroscopicity (hygroscopic weight gain was less than 15% and not less than 2%)”. The same compound had a solubility at 30 min in data set [2] of 24 mg/mL. Also, in data set [3], the AUC(0-t) was 652 ng·h/mL.

For `CCN(CC)CCNC(=O)c1c(C)[nH]c2c1CCC/C2=C1/C(=O)Nc2ccc(F)cc21.O=C(O)/C=C\C(=O)O` [Maleate, (Z)—N-[2-(diethylamino)ethyl]-2-methyl-7-(1,2-dihydro-5-fluoro-2-oxo-3H-indol-3-ylidene)-4,5,6,7-tetrahydro-1H-indol-3-carboxamide maleate], in data set [1], the Hygroscopicity result was “Slight hygroscopicity (hygroscopic weight gain was less than 2% and not less than 0.2%)”. Also, the solubility at 30 min in data set [2] is 1.32 mg/mL.

Turning to `CCN(CC)CCNC(=O)c1c(C)[nH]c2c1CCC/C2=C1/C(=O)Nc2ccc(F)cc21.CS(=O)(=O)O` [Methanesulfonate, (Z)—N-[2-(diethylamino)ethyl]-2-methyl-7-(1,2-dihydro-5-fluoro-2-oxo-3H-indol-3-ylidene)-4,5,6,7-tetrahydro-1H-indol-3-carboxamide methanesulfonate], the Hygroscopicity result in data set [1] is on record as “Strong hygroscopicity (hygroscopic weight gain was not less than 15%)”. Moreover, the solubility at 30 min in data set [2] turned out to be 12.3 mg/mL.

For the compound `CCN(CC)CCNC(=O)c1c(C)[nH]c2c1CCC/C2=C1/C(=O)Nc2ccc(F)cc21.Cc1ccc(S(=O)(=O)O)cc1` [P-toluenesulfonate, (Z)—N-[2-(diethylamino)ethyl]-2-methyl-7-(1,2-dihydro-5-fluoro-2-oxo-3H-indol-3-ylidene)-4,5,6,7-tetrahydro-1H-indol-3-carboxamide p-toluenesulfonate], the Hygroscopicity entry in data set [1] is “Slight hygroscopicity (hygroscopic weight gain was less than 2% and not less than 0.2%)”. The compound further yielded a solubility at 30 min in data set [2] of 0.419 mg/mL.

Take `CCN(CC)CCNC(=O)c1c(C)[nH]c2c1CCC/C2=C1/C(=O)Nc2ccc(F)cc21.O=P(O)(O)O` [Phosphate, (Z)—N-[2-(diethylamino)ethyl]-2-methyl-7-(1,2-dihydro-5-fluoro-2-oxo-3H-indol-3-ylidene)-4,5,6,7-tetrahydro-1H-indol-3-carboxamide phosphate]: in data set [1], the Hygroscopicity entry is “Slight hygroscopicity (hygroscopic weight gain was less than 2% and not less than 0.2%)”. Besides, in data set [2], the solubility at 30 min stood at 29.7 mg/mL. Further, the AUC(0-t) in data set [3] was 322 ng·h/mL.

In the case of `CCN(CC)CCNC(=O)c1c(C)[nH]c2c1CCC/C2=C1/C(=O)Nc2ccc(F)cc21.O=C(O)CCC(=O)O` [Succinate, (Z)—N-[2-(diethylamino)ethyl]-2-methyl-7-(1,2-dihydro-5-fluoro-2-oxo-3H-indol-3-ylidene)-4,5,6,7-tetrahydro-1H-indol-3-carboxamide succinate], the Hygroscopicity result in data set [1] was “Slight hygroscopicity (hygroscopic weight gain was less than 2% and not less than 0.2%)”. In data set [2], this compound returned a solubility at 30 min of 13.4 mg/mL.

Regarding `CCN(CC)CCNC(=O)c1c(C)[nH]c2c1CCC/C2=C1/C(=O)Nc2ccc(F)cc21.O=S(=O)(O)O` [Sulfate, (Z)—N-[2-(diethylamino)ethyl]-2-methyl-7-(1,2-dihydro-5-fluoro-2-oxo-3H-indol-3-ylidene)-4,5,6,7-tetrahydro-1H-indol-3-carboxamide sulfate], the Hygroscopicity entry in data set [1] is “Slight hygroscopicity (hygroscopic weight gain was less than 2% and not less than 0.2%)”. Further, the solubility at 30 min in data set [2] amounted to 0.236 mg/mL.

As to “(Z)—N-[2-(diethylamino)ethyl]-2-methyl-7-(1,2-dihydro-5-fluoro-2-oxo-3H-indol-3-ylidene)-4,5,6,7-tetrahydro-1H-indol-3-carboxamide L-mandelate”, the Hygroscopicity entry in data set [1] is “Hygroscopicity (hygroscopic weight gain was less than 15% and not less than 2%)”. Also, the “Solubility in Water” value in data set [2] came out at 14.7218 mg/mL.

These data come from patent US9018242B2, “Salt form of tyrosine kinase inhibitor” (Jiangsu Simcere Pharmaceutical R&D Co., Ltd, priority 2011, dated 2015).
